According to patent US9745319B2, “Irreversible covalent inhibitors of the GTPase K-Ras G12C” (Araxes Pharma LLC, priority 2013, dated 2017):

The compounds below were run against T1, KRAS G12C 1-169, his-tagged protein, GDP-loaded (Homo sapiens, UniProt P01116, G12C) (assay: Biochemical assay: covalent binding to KRAS G12C analyzed by mass spectrometry). Conditions: protein diluted to 2 μm, room temperature for 24 hrs, method lists 100, 30 and 10 μM final compound concentration, not stated which applies.
T1 construct: KRAS G12C 1-169, his-tagged protein, GDP-loaded was diluted to 2 μm in buffer
Experimental: Test compounds were prepared as 10 mM stock solutions in DMSO (Fisher cat# BP-231-100). KRAS G12C 1-169, his-tagged protein, GDP-loaded was diluted to 2 μm in buffer (20 mM Hepes, 150 mM NaCl, 1 mM MgCl2). Compounds were tested for activity as follows:
Compounds were diluted to 50× final test concentration in DMSO in 96-well storage plates. Compound stock solutions were vortexed before use and observed carefully for any sign of precipitation. Dilutions were as follow: • For 100 μM final compound concentration, compounds were diluted to 5000 μM (5 μl 10 mM compound stock +5 μl DMSO and mixed well by pipetting. • For 30 μM final compound concentration, compounds were diluted to 1500 μM (3 μl 10 mM compound stock +17 μl DMSO) and mixed well by pipetting. • For 10 μM final compound concentration, compounds were diluted to 500 μM (2 μl 10 mM compound stock +38 μl DMSO) and mixed well by pipetting. 49 μl of the stock protein solution was added to each well of a 96-well PCR plate (Fisher cat#1423027). 1 μl of the diluted 50× compounds were added to appropriate wells in the PCR plate using 12-channel pipettor. Reactions were mixed carefully and thoroughly by pipetting up/down with a 200 μl multi-channel pipettor. The plate was sealed well with aluminum plate seal, and stored in drawer at room temperature for 24 hrs. 5 μl of 2% formic acid (Fisher cat# A117) in DI H2O was then added to each well followed by mixing with a pipette. The plate was then resealed with aluminum seal and stored on dry ice until analyzed as described below.
The above described assays were analyzed by mass spectrometry according to the following procedure:
The MS instrument is set to positive polarity, 2 GHz resolution, and low mass (1700) mode and allowed to equilibrate for 30 minutes. The instrument is then calibrated, switched to acquisition mode and the appropriate method loaded.
After another 30 minute equilibration time, a blank batch (i.e., buffer) is run to ensure equipment is operating properly. The samples are thawed at 37° C. for 10 minutes, briefly centrifuged, and transfer to the bench top. Wells A1 and H12 are spiked with 1 uL 500 uM internal standard peptide, and the plates centrifuged at 2000×g for 5 minutes. The method is then run and masses of each individual well recorded.
The masses (for which integration data is desired) for each well are pasted into the platemap and exported from the analysis. Masses for the internal standards are exported as well. The data at 50 ppm is extracted for the +19 charge state, and identity of well A1 is assigned using the internal standard spike and integrated. Peak data is exported as a TOF list and the above steps are repeated individually, for the +20, 21, 22, 23, 24, and 25 charge states.

| Compound | Binding % |
| --- | --- |
| C=CC(=O)NCC1C[C@@H]2O[C@H](CO)[C@@H](OCc3ccccc3)[C@@H]2O1 (some centres unmarked) [Compound I-1] | + (+ indicates binding activity from 0.5% to 5%) |
| C=CC(=O)NC[C@@H]1C[C@@H]2O[C@H](CO)[C@@H](OCc3ccccc3)[C@@H]2O1 [Compound I-2] | + (+ indicates binding activity from 0.5% to 5%) |
| C=CC(=O)NC[C@H]1C[C@@H]2O[C@H](COCc3ccccc3)[C@@H](OCc3ccccc3)[C@@H]2O1 [Compound I-3] | + (+ indicates binding activity from 0.5% to 5%) |
| C=CC(=O)NC[C@@H]1C[C@@H]2O[C@H](COCc3ccccc3)[C@@H](OCc3ccccc3)[C@@H]2O1 [Compound I-4] | + (+ indicates binding activity from 0.5% to 5%) |
| C=CS(=O)(=O)NC[C@@H]1C[C@@H]2O[C@H](COCc3ccccc3)[C@@H](OCc3ccccc3)[C@@H]2O1 [Compound I-5] | +++ (+++ indicates binding activity from greater than 10% to 15%) |
| C=CS(=O)(=O)NC[C@H]1C[C@@H]2O[C@H](COCc3ccccc3)[C@@H](OCc3ccccc3)[C@@H]2O1 [Compound I-6] | +++ (+++ indicates binding activity from greater than 10% to 15%) |
| C=CS(=O)(=O)NC[C@H]1C[C@@H]2O[C@H](CO)[C@@H](OCc3ccccc3)[C@@H]2O1 [Compound I-7] | ++ (++ indicates binding activity from greater than 5% to 10%) |
| C=Cc1ccc(S(=O)(=O)NC[C@H]2C[C@@H]3O[C@H](CO)[C@@H](OCc4ccccc4)[C@@H]3O2)cc1 [Compound I-9] | +++ (+++ indicates binding activity from greater than 10% to 15%) |
| C=Cc1ccc(S(=O)(=O)NC[C@H]2C[C@@H]3O[C@H](COCc4ccccc4)[C@@H](OCc4ccccc4)[C@@H]3O2)cc1 [Compound I-10] | ++++ (++++ indicates binding activity from greater than 15%) |
| C=Cc1cccc(S(=O)(=O)NC[C@H]2C[C@@H]3O[C@H](COCc4ccccc4)[C@@H](OCc4ccccc4)[C@@H]3O2)c1 [Compound I-11] | ++ (++ indicates binding activity from greater than 5% to 10%) |
| C=Cc1ccccc1S(=O)(=O)NC[C@H]1C[C@@H]2O[C@H](COCc3ccccc3)[C@@H](OCc3ccccc3)[C@@H]2O1 [Compound I-12] | +++ (+++ indicates binding activity from greater than 10% to 15%) |
| C=Cc1cccc(S(=O)(=O)NC[C@@H]2C[C@@H]3O[C@H](COCc4ccccc4)[C@@H](OCc4ccccc4)[C@@H]3O2)c1 [Compound I-13] | ++++ (++++ indicates binding activity from greater than 15%) |
| C=Cc1ccc(S(=O)(=O)NC[C@@H]2C[C@@H]3O[C@H](COCc4ccccc4)[C@@H](OCc4ccccc4)[C@@H]3O2)cc1 [Compound I-14] | +++ (+++ indicates binding activity from greater than 10% to 15%) |
| C=Cc1ccccc1S(=O)(=O)NC[C@@H]1C[C@@H]2O[C@H](COCc3ccccc3)[C@@H](OCc3ccccc3)[C@@H]2O1 [Compound I-15] | +++ (+++ indicates binding activity from greater than 10% to 15%) |
| C=Cc1cccc(S(=O)(=O)NC[C@H]2C[C@@H]3O[C@H](CO)[C@@H](OCc4ccccc4)[C@@H]3O2)c1 [Compound I-16] | ++ (++ indicates binding activity from greater than 5% to 10%) |
| C=Cc1ccccc1S(=O)(=O)NC[C@@H]1C[C@@H]2O[C@H](CO)[C@@H](OCc3ccccc3)[C@@H]2O1 [Compound I-17] | ++++ (++++ indicates binding activity from greater than 15%) |

| Compound | Binding % |
| --- | --- |
| C=Cc1ccccc1S(=O)(=O)NC[C@H]1C[C@@H]2O[C@H](CO)[C@@H](OCc3ccccc3)[C@@H]2O1 [Compound I-18] | +++ (+++ indicates binding activity from greater than 10% to 15%) |
| C=Cc1ccc(S(=O)(=O)NC[C@H]2C[C@@H]3O[C@H](CO)[C@@H](OCc4ccccc4)[C@@H]3O2)cc1 [Compound I-19] | ++ (++ indicates binding activity from greater than 5% to 10%) |
| C=Cc1cccc(S(=O)(=O)NC[C@@H]2C[C@@H]3O[C@H](CO)[C@@H](OCc4ccccc4)[C@@H]3O2)c1 [Compound I-20] | +++ (+++ indicates binding activity from greater than 10% to 15%) |
| C=CS(=O)(=O)NCCOc1ccc2ccccc2c1 [II-1] | +++ (+++ indicates binding activity from greater than 10% to 15%) |
| C=CS(=O)(=O)NCCOc1cccc2ccccc12 [II-2] | +++ (+++ indicates binding activity from greater than 10% to 15%) |
| C=CS(=O)(=O)NCCNc1cccc2ccccc12 [II-3] | +++ (+++ indicates binding activity from greater than 10% to 15%) |
| C=CS(=O)(=O)NCCNc1ccc2ccccc2c1 [II-4] | ++ (++ indicates binding activity from greater than 5% to 10%) |
| C=Cc1ccc(S(=O)(=O)NCCNc2ccc3ccccc3c2)cc1 [II-5] | ++ (++ indicates binding activity from greater than 5% to 10%) |
| C=Cc1ccc(S(=O)(=O)NCCOc2ccc3ccccc3c2)cc1 [II-6] | +++ (+++ indicates binding activity from greater than 10% to 15%) |
| C=Cc1cccc(S(=O)(=O)NCCOc2cccc3ccccc23)c1 [II-7] | ++ (++ indicates binding activity from greater than 5% to 10%) |
| C=Cc1cccc(S(=O)(=O)NCCOc2ccc3ccccc3c2)c1 [II-8] | +++ (+++ indicates binding activity from greater than 10% to 15%) |
| C=Cc1ccccc1S(=O)(=O)NCCOc1ccc2ccccc2c1 [II-9] | ++ (++ indicates binding activity from greater than 5% to 10%) |
| C=Cc1ccc(S(=O)(=O)NCCNc2cccc3ccccc23)cc1 [II-10] | +++ (+++ indicates binding activity from greater than 10% to 15%) |
| C=Cc1ccccc1S(=O)(=O)NCCNc1cccc2ccccc12 [II-11] | ++++ (++++ indicates binding activity from greater than 15%) |
| C=Cc1ccccc1S(=O)(=O)NCCOc1cccc2ccccc12 [II-12] | +++ (+++ indicates binding activity from greater than 10% to 15%) |
| C=Cc1ccccc1S(=O)(=O)NCCNc1ccc2ccccc2c1 [II-13] | +++ (+++ indicates binding activity from greater than 10% to 15%) |
